Columns and labels:
[1] = target: human D3 dopamine receptor (Homo sapiens (Human), UniProt P35462); test: Radioligand binding (125I-IABN competition), D3; settings: for Ki: 125I-IABN competition, HEK cell membranes expressing human D3; for D2/D3 (D3 selectivity ratio, D2 Ki/D3 Ki): calculated D2 Ki/D3 Ki
Procedure: (§1) The affinities of the target compounds were determined using radioligand binding experiments. […] Competition curves were modeled for a single site. Data from competition dose-response curves were analyzed using Tablecurve program (Jandel). IC50 values were converted to equilibrium dissociation constants (Ki values) using the Cheng and Prusoff correction.

[2] = target: human D2-long dopamine receptor (Homo sapiens (Human), UniProt P14416); test: Radioligand binding (125I-IABN competition), D2; settings: HEK cell membranes expressing human D2-long
human D2-long dopamine receptor, sequence (P14416 whole entry): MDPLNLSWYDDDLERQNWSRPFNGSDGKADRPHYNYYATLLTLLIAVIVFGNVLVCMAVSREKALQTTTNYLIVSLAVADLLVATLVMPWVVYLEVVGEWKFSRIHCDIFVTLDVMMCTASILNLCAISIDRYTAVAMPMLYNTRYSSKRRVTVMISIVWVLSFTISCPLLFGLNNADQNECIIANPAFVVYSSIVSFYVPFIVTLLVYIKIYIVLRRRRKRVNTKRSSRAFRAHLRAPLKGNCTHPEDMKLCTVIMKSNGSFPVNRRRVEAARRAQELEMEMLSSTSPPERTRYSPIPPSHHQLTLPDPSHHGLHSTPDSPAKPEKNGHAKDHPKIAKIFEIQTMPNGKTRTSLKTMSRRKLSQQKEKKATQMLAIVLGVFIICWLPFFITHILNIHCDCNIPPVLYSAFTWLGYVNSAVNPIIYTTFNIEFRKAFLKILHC
Procedure: as §1

human D3 dopamine receptor, sequence (P35462 whole entry): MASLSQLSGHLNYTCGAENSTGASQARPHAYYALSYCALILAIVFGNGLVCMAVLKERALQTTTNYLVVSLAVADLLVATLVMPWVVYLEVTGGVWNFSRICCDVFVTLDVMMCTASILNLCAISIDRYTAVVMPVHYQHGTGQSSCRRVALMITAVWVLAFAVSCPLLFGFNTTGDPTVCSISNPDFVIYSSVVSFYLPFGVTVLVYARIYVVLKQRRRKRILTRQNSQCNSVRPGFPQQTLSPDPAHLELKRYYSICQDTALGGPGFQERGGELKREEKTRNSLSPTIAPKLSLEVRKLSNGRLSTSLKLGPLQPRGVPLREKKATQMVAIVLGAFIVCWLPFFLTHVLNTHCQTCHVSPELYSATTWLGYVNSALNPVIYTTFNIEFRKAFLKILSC

Ki [1] [nM]	D2/D3 (D3 selectivity ratio, D2 Ki/D3 Ki) [1]	Ki [2] [nM]	SMILES
8.6 ± 1.1	15	128 ± 25.8	CCN1CCN(C(=O)NCCCCN2CCN(c3cc(C(F)(F)F)nc(C(C)(C)C)n3)CC2)CC1 [Compound 65, N-(4-(4-(2-(tert-Butyl)-6-(trifluoromethyl)pyrimidin-4-yl)piperazin-1-yl)butyl)-4-ethylpiperazine-1-carboxamide]
27 ± 3.9	47	1270 ± 291	CC(C)(C)c1nc(N2CCN(CCCCNC(=O)N3CCC(O)(c4ccccc4)CC3)CC2)cc(C(F)(F)F)n1 [Compound 49, N-(4-(4-(2-(tert-Butyl)-6-(trifluoromethyl)pyrimidin-4-yl)piperazin-1-yl)butyl)-4-hydroxy-4-phenylpiperidine-1-carboxamide]
13 ± 0.7	58	762 ± 159	COc1cccc(N2CCN(C(=O)NCCCCN3CCN(c4cc(C(F)(F)F)nc(C(C)(C)C)n4)CC3)CC2)c1 [Compound 20, N-(4-(4-(2-(tert-Butyl)-6-(trifluoromethyl)pyrimidin-4-yl)piperazin-1-yl)butyl)-4-(3-methoxyphenyl)piperazine-1-carboxamide]
22.9 ± 5	21	490 ± 70	CC(C)(C)c1nc(N2CCN(CCCCNC(=O)N3CCc4ccccc4C3)CC2)cc(C(F)(F)F)n1 [Compound 41, N-(4-(4-(2-(tert-Butyl)-6-(trifluoromethyl)pyrimidin-4-yl)piperazin-1-yl)butyl)-3,4-dihydroisoquinoline-2(1H)-carboxamide]

More lines, now with the values behind:

SMILES	Ki [1] [nM]	D2/D3 (D3 selectivity ratio, D2 Ki/D3 Ki) [1]	Ki [2] [nM]
CC(C)(C)c1nc(N2CCN(CCCCNC(=O)N3CCc4ccccc43)CC2)cc(C(F)(F)F)n1 [Compound 71, N-(4-(4-(2-(tert-Butyl)-6-(trifluoromethyl)pyrimidin-4-yl)piperazin-1-yl)butyl)indoline-1-carboxamide]	27.4 ± 3.8	10	281 ± 46.5
COc1ccc2[nH]c3c(c2c1)CN(C(=O)NCCCCN1CCN(c2cc(C(C)(C)C)nc(C)n2)CC1)CC3 [Compound 96, N-(4-(4-(6-(tert-Butyl)-2-methylpyrimidin-4-yl)piperazin-1-yl)butyl)-8-methoxy-3,4-dihydro-1H-pyrido[4,3-b]indole-2(5H)-carboxamide]	74.9 ± 15	>66	> 5000
O=C(NCCCCN1CCN(c2ccnc3cc(Cl)ccc23)CC1)c1cn2ccccc2n1 [Compound 118, N-(4-(4-(7-Chloroquinolin-4-yl)piperazin-1-yl)butyl)imidazo[1,2-a]pyridine-2-carboxamide]			1880 ± 488
Cc1nc(N2CCN(CCCCNC(=O)c3cn4ccccc4n3)CC2)cc(C(C)(C)C)n1 [Compound 125, N-(4-(4-(6-(tert-Butyl)-2-methylpyrimidin-4-yl)piperazin-1-yl)butyl)imidazo[1,2-a]pyridine-2-carboxamide]			4600 ± 785
Cc1cc(N2CCN(CCCCNC(=O)c3cn4ccccc4n3)CC2)nc(C(C)(C)C)n1 [Compound 111, N-(4-(4-(2-(tert-Butyl)-6-methylpyrimidin-4-yl)piperazin-1-yl)butyl)imidazo[1,2-a]pyridine-2-carboxamide]			366
CC(C)(C)c1nc(N2CCN(CCCCNC(=O)C3CCN(c4ccccc4)CC3)CC2)cc(C(F)(F)F)n1 [Compound 108, N-(4-(4-(2-(tert-Butyl)-6-(trifluoromethyl)pyrimidin-4-yl)piperazin-1-yl)butyl)-1-phenylpiperidine-4-carboxamide]			809 ± 194
CC(C)(C)c1nc(C2CC2)cc(N2CCN(CCCCNC(=O)c3cn4ccccc4n3)CC2)n1 [Compound 112, N-(4-(4-(2-(tert-Butyl)-6-cyclopropylpyrimidin-4-yl)piperazin-1-yl)butyl)imidazo[1,2-a]pyridine-2-carboxamide]			191
O=C(NCCCCN1CCN(c2cc(C(F)(F)F)nc3ccccc23)CC1)c1cn2ccccc2n1 [Compound 130, N-(4-(4-(2-(Trifluoromethyl)quinolin-4-yl)piperazin-1-yl)butyl)imidazo[1,2-a]pyridine-2-carboxamide]			13600 ± 6260
